Measurements as given in patent US9814739B2, “2′-ethynyl nucleoside derivatives for treatment of viral infections” (priority 2012, dated 2017).
Like-named read-outs stand apart in the source and are kept apart here.

Legend:
[1] = test system: Replicon cells, expressing the GT1b HCV luciferase replicon
[2] = test system: GT1b HCV luciferase replicon; assay: HCV replicon antiviral EC50 assay; format: cell-based, Hepatitis C virus
in vitro = conditions: for CC50: HCV GT1b CC50 (uM)
[3] = Hepatitis C virus, GT1B, 72 h, read-out: HCV GT1b EC50 (uM)

Compound | EC50 ([2]; read-out: HCV GT1b EC50) [µM] | CC50 (in vitro) [µM] | EC50 [2, 3] [µM] | other results
C#C[C@@]1(O)[C@H](O)[C@@H](COP(=O)(N[C@@H](Cc2ccccc2)C(=O)OC(C)C)Oc2ccccc2)O[C@H]1n1ccc(=O)[nH]c1=O (single isomer, unassigned) [1.10 (peak 1)] | 2.87 |  |  | CC50 [1]: > 25 µM
C#C[C@@]1(O)[C@H](O)[C@@H](COP(=O)(N[C@@H](Cc2ccccc2)C(=O)OC(C)C)Oc2ccccc2)O[C@H]1n1ccc(=O)[nH]c1=O (single isomer, unassigned) [1.10 (peak 2)] | 0.023 | > 25 |  | 
C#C[C@@]1(O)[C@H](O)[C@@H](COP(=O)(N[C@@H](C)C(=O)OC2CCC2)Oc2ccccc2)O[C@H]1n1ccc(=O)[nH]c1=O (single isomer, unassigned) [1.11 (peak 1)] | 0.1 |  |  | CC50 [1]: > 25 µM
C#C[C@@]1(O)[C@H](O)[C@@H](COP(=O)(N[C@@H](C)C(=O)OC2CCC2)Oc2ccccc2)O[C@H]1n1ccc(=O)[nH]c1=O (single isomer, unassigned) [1.11 (peak 2)] |  | > 25 | 0.058 | 
C#C[C@@]1(O)[C@H](O)[C@@H](COP(=O)(N[C@@H](C)C(=O)O[C@@H](C)CC)Oc2ccccc2)O[C@H]1n1ccc(=O)[nH]c1=O (single isomer, unassigned) [1.13 (peak 1)] | 0.302 |  |  | CC50 [1]: > 25 µM
C#C[C@@]1(O)[C@H](O)[C@@H](COP(=O)(N[C@@H](C)C(=O)O[C@@H](C)CC)Oc2ccccc2)O[C@H]1n1ccc(=O)[nH]c1=O (single isomer, unassigned) [1.13 (peak 2)] | 0.025 | > 25 |  | 
C#C[C@@]1(O)[C@H](O)[C@@H](COP(=O)(N[C@@H](C)C(=O)OC2CCOCC2)Oc2ccccc2)O[C@H]1n1ccc(=O)[nH]c1=O (single isomer, unassigned) [1.14 (peak 1)] | 1.15 |  |  | CC50 [1]: > 25 µM
C#C[C@@]1(O)[C@H](O)[C@@H](COP(=O)(N[C@@H](C)C(=O)OC2CCOCC2)Oc2ccccc2)O[C@H]1n1ccc(=O)[nH]c1=O (single isomer, unassigned) [1.14 (peak 2)] | 0.459 | > 25 |  | 
C#C[C@@]1(O)[C@H](O)[C@@H](COP(=O)(N[C@@H](C)C(=O)O[C@H](C)CC)Oc2ccccc2)O[C@H]1n1ccc(=O)[nH]c1=O (single isomer, unassigned) [1.15 (peak 1)] | 0.172 |  |  | CC50 [1]: > 25 µM
C#C[C@@]1(O)[C@H](O)[C@@H](COP(=O)(N[C@@H](C)C(=O)O[C@H](C)CC)Oc2ccccc2)O[C@H]1n1ccc(=O)[nH]c1=O (single isomer, unassigned) [1.15 (peak 2)] | 0.029 | > 25 |  | 
C#C[C@@]1(O)[C@H](O)[C@@H](COP(=O)(N[C@@H](C)C(=O)OC(CC)CC)Oc2ccccc2)O[C@H]1n1ccc(=O)[nH]c1=O (single isomer, unassigned) [1.16 (peak 1)] | 0.34 |  |  | CC50 [1]: > 25 µM
C#C[C@@]1(O)[C@H](O)[C@@H](COP(=O)(N[C@@H](C)C(=O)OC(CC)CC)Oc2ccccc2)O[C@H]1n1ccc(=O)[nH]c1=O (single isomer, unassigned) [1.16 (peak 2)] | 0.056 | > 25 |  | 
C#C[C@@]1(O)[C@H](O)[C@@H](COP(=O)(N[C@@H](C)C(=O)OCOC(C)=O)Oc2ccccc2)O[C@H]1n1ccc(=O)[nH]c1=O (single isomer, unassigned) [1.17 (peak 2)] |  | > 25 | 9.09 | 
C#C[C@@]1(O)[C@H](O)[C@@H](COP(=O)(NCCOC(=O)c2ccccc2)Oc2ccccc2)O[C@H]1n1ccc(=O)[nH]c1=O (single isomer, unassigned) [1.18 (peak 2)] |  | > 25 | 0.089 | 
C#C[C@@]1(O)[C@H](O)[C@@H](COP(=O)(N[C@@H](CC(C)C)C(=O)OC(C)C)Oc2ccccc2)O[C@H]1n1ccc(=O)[nH]c1=O (single isomer, unassigned) [1.23 (peak 2)] | 0.305 | > 25 |  | 
C#C[C@@]1(O)[C@H](O)[C@@H](COP(=O)(N[C@@H](CCC)C(=O)OC(C)C)Oc2ccccc2)O[C@H]1n1ccc(=O)[nH]c1=O (single isomer, unassigned) [1.24 (peak 2)] | 0.062 | > 25 |  | 
C#C[C@@]1(O)[C@H](O)[C@@H](COP(=O)(N[C@@H](C)C(=O)OC(C)C)Oc2ccccc2)O[C@H]1n1ccc(=O)[nH]c1=O (single isomer, unassigned) [1.25 (peak 1)] |  | > 25 | 0.358 | 

Compound | EC50 ([2]; read-out: HCV GT1b EC50) [µM] | CC50 (in vitro) [µM] | EC50 [2, 3] [µM] | other results
C#C[C@@]1(O)[C@H](O)[C@@H](COP(=O)(N[C@@H](C)C(=O)OC(C)C)Oc2ccccc2)O[C@H]1n1ccc(OC)nc1=O (single isomer, unassigned) [1.28 (peak 2)] |  | > 25 | > 100 | 
C#C[C@@]1(O)[C@H](O)[C@@H](COP(=O)(N[C@@H](C)C(=O)OC(C)C)Oc2ccccc2)O[C@H]1n1ccc(N)nc1=O (single isomer, unassigned) [1.30 (peak 2)] |  | > 25 | 54.3 | 
C#C[C@@]1(O)[C@H](O)[C@@H](COP(=O)(N[C@@H](C)C(=O)OC2CCCC2)Oc2ccccc2)O[C@H]1n1ccc(=O)[nH]c1=O (single isomer, unassigned) [1.31 (peak 2)] | 0.006 | > 25 |  | 
C#C[C@@]1(O)[C@H](O)[C@@H](COP(=O)(N[C@@H](C)C(=O)OCC(C)(C)OC)Oc2ccccc2)O[C@H]1n1ccc(=O)[nH]c1=O (single isomer, unassigned) [1.32 (peak 2)] | 0.182 | > 25 |  | 
C#C[C@@]1(O)[C@H](O)[C@@H](COP(=O)(N[C@@H](C)C(=O)OCC(C)(C)C)Oc2ccccc2)O[C@H]1n1ccc(=O)[nH]c1=O (single isomer, unassigned) [1.33 (peak 2)] | 0.994 | > 25 |  | 
C#C[C@@]1(O)[C@H](O)[C@@H](COP(=O)(N[C@@H](C)C(=O)OC(CCC)CCC)Oc2ccccc2)O[C@H]1n1ccc(=O)[nH]c1=O (single isomer, unassigned) [1.34 (peak 2)] |  | > 25 | 0.151 | 
C#C[C@@]1(O)[C@H](O)[C@@H](COP(=O)(N[C@@H](C)C(=O)OC)Oc2ccccc2)O[C@H]1n1ccc(=O)[nH]c1=O (single isomer, unassigned) [1.35 (peak 2)] |  | > 25 | 0.194 | 
C#C[C@@]1(O)[C@H](O)[C@@H](COP(=O)(N[C@@H](C)C(=O)OCC)Oc2ccccc2)O[C@H]1n1ccc(=O)[nH]c1=O (single isomer, unassigned) [1.36 (peak 2)] |  | > 25 | 0.096 | 
C#C[C@@]1(O)[C@H](O)[C@@H](COP(=O)(NC(C)(C)C(=O)OCC)Oc2ccccc2)O[C@H]1n1ccc(=O)[nH]c1=O (single isomer, unassigned) [1.37 (peak 2)] |  | > 25 | 0.478 | 
C#C[C@@]1(O)[C@H](O)[C@@H](COP(=O)(N[C@@H](CC)C(=O)OC(C)C)Oc2ccccc2)O[C@H]1n1ccc(=O)[nH]c1=O (single isomer, unassigned) [1.38 (peak 2)] |  | > 25 | 0.54 | 
C#C[C@@]1(O)[C@H](O)[C@@H](COP(=O)(NC(C)(C)C(=O)OC(C)C)Oc2ccccc2)O[C@H]1n1ccc(=O)[nH]c1=O (single isomer, unassigned) [1.39 (peak 2)] | 0.047 | > 25 |  | 
C#C[C@@]1(O)[C@H](O)[C@@H](COP(=O)(N[C@@H](C)C(=O)OC2CCCCC2)Oc2ccccc2)O[C@H]1n1ccc(=O)[nH]c1=O (stereo partly drawn) [Example 1.12, (2S)-cyclohexyl 2-(((((2R,3R,4R,5R)-5-(2,4-dioxo-3,4-dihydropyrimidin-1(2H)-yl)-4-ethynyl-3,4-dihydroxytetrahydrofuran-2-yl)methoxy)(phenoxy)phosphoryl)amino)propanoate] |  | > 25 | 0.013 | 
C#C[C@@]1(O)[C@H](O)[C@@H](COP(=S)(N[C@@H](C)C(=O)OC(C)C)Oc2ccccc2)O[C@H]1n1ccc(=O)[nH]c1=O (stereo partly drawn) [Example 1.19, (2S)-isopropyl 2-(((((2R,3R,4R,5R)-5-(2,4-dioxo-3,4-dihydropyrimidin-1(2H)-yl)-4-ethynyl-3,4-dihydroxytetrahydrofuran-2-yl)methoxy)(phenoxy)phosphorothioyl)amino)propanoate] |  |  | 0.036 | CC50 at 3 days (in vitro): > 25 µM
C#C[C@@]1(O)[C@H](OC(C)=O)[C@@H](COP(=O)(N[C@@H](C)C(=O)OC(C)C)Oc2ccccc2)O[C@H]1n1ccc(=O)[nH]c1=O (stereo partly drawn) [Example 1.21, (2S)-isopropyl 2-(((((2R,3R,4R,5R)-3-acetoxy-5-(2,4-dioxo-3,4-dihydropyrimidin-1(2H)-yl)-4-ethynyl-4-hydroxytetrahydrofuran-2-yl)methoxy)(phenoxy)phosphoryl)amino)propanoate] |  | > 25 | 0.067 | 
C#C[C@@]12OC(=O)O[C@@H]1[C@@H](COP(=O)(N[C@@H](C)C(=O)OC(C)C)Oc1ccccc1)O[C@H]2n1ccc(=O)[nH]c1=O (stereo partly drawn) [Example 1.22, (2S)-isopropyl 2-(((((3aR,4R,6R,6aR)-6-(2,4-dioxo-3,4-dihydropyrimidin-1(2H)-yl)-6a-ethynyl-2-oxotetrahydrofuro[3,4-d][1,3]dioxol-4-yl)methoxy)(phenoxy)phosphoryl)amino)propanoate] |  | > 25 | 0.108 | 
C#C[C@]1(O)[C@H](n2ccc(=O)[nH]c2=O)O[C@@](CO[P@@](=O)(N[C@@H](C)C(=O)OC(C)C)Oc2ccccc2)(N=[N+]=[N-])[C@H]1O [Example 1.26, (2S)-isopropyl 2-(((((2R,3S,4R,5R)-2-azido-5-(2,4-dioxo-3,4-dihydropyrimidin-1(2H)-yl)-4-ethynyl-3,4-dihydroxytetrahydrofuran-2-yl)methoxy)(phenoxy)phosphoryl)amino)propanoate] |  | > 25 | 1.44 | 
C#C[C@@]1(O)[C@H](O)[C@@H](COP(=O)(O)N[C@@H](C)C(=O)O)O[C@H]1n1ccc(=O)[nH]c1=O [Example 1.40, (2S)-2-(((((2R,3R,4R,5R)-5-(2,4-dioxo-3,4-dihydropyrimidin-1(2H)-yl)-4-ethynyl-3,4-dihydroxytetrahydrofuran-2-yl)methoxy)(hydroxy)phosphoryl)amino)propanoic acid] |  | > 25 |  | EC50 ([2]; Hepatitis C virus, 72 h, GT1b replicon cells, 3 days, luciferase, read-out: HCV GT1b EC50): 0.148 µM
